The nature of data set [1]: Bio-distribution study (DOX in plasma, tumor and tissues). Format: in vivo, BALB/c mice. The following applies: 15 mg/kg as DOX; after 3 hours. The procedure: Two weeks after tumor inoculation, when the tumors were approximately 5 mm wide, mice (3 per group) were injected via the tail vain with either 15 mg/kg of doxorubicin as Caelyx® or targeted liposomes. Control mice received 200 μL of dextrose 5%. Blood samples were collected via retro orbital bleeding (approx. 0.5 mL) 3, 6, and 12 hours after the dosing. After 24 hours, the group was sacrificed for tissue collection. Blood samples were collected by heart puncture, and the whole tumor, kidneys, spleen, heart, lungs as well as a portion of liver and muscle were dissected, weighted and placed in a 2 mL Polypropylene Microvials containing 1 mL of acidified isopropanol and zirconia bead sand homogenized by Mini-Beadbeater-1. The blood was allowed to coagulate at 4° C. and then centrifuged for 10 min at 14,000 rpm. Then, serum was collected and an adequate volume was diluted in 1 mL acidified isopropanol. The homogenized tissue samples and the sera were stored overnight at 4° C. to extract the drug. The samples were then centrifuged and the supernatant was assayed for DOX concentration spectrofluorimetrically (Ex:470 nm, Em:590 nm). The calibration curve was prepared using serial dilutions of Doxil the tissue and sera extracts of the control mice. […]

Data set [2] deals with MDA-MB-231 (HER2-Low expressing cells). Put plainly: MTT cytotoxicity study. In kind it is cell-based. The following applies: then 48 hours, mean ± SD, n = 3. The procedure: (§1) The anti-proliferative effects of liposomal preparations containing DOX were assessed using MTT assay. SK-BR-3, TUBO, and MDA-MB-231 cells were seeded at 7000, 10,000, 2500 cells/well in 96 well plates. After an overnight incubation, the medium was replaced with FCS free medium containing 1:2 serial dilutions of liposomal DOX or free DOX. After 3 hours and 6 hours' incubation times at 37° C., cells were washed with pre-warmed complete culture media and re-incubated further for 48 hours at 37° C. in their complete culture medium. Then, the medium was replaced with 100 μL of freshly prepared MTT (10% v/v, 5 mg/mL) and FCS free culture medium. Finally, after 4 hours of incubation at 37° C., the absorbance at 545 nm was recorded. Relative cell death (R) was calculated as follows: R=1−[(Atest−Ablank)/(Acontrol−Ablank)] Equation (1)
(§2) In the above Equation (1), Atest is the absorbance values of the cells treated with the test solutions and Acontrol is the absorbance values of the culture medium (negative control). Ablank is the absorbance of MTT solution added in cell free wells. The IC50 was then calculated using CalcuSyn version 2 software (BIOSOFT, UK).

Data set [3] has as its system TUBO breast carcinoma tumor. Nature of the data set: Chemotherapy study in tumor-bearing mice. The following applies: for CR (complete regression) / TFS (tumor free survivor): number of animals of n = 4-5; for TGD (Tumor growth delay): versus dextrose 5% control.
Method: Initially, on day 0, female BALB/c mice aged 4-6 weeks were given subcutaneous injections of TUBO tumor cells (5×10^5 cells per mouse) in the right flank. On day 11, post-tumoring mice with palpable tumor received 0.2 mL via a single tail vein injection of either dextrose 5% solution as negative control or doxorubicin encapsulated in liposomes (15 mg/kg). Mice were weighed and tumor sizes were monitored during the experimental period. The tumor volume was estimated by measuring three orthogonal diameters (a, b, and c) with calipers; the volume was calculated as (a×b×c)×0.5 mm^3. Tumors that were just palpable were defined as 1 mm^3. To survival study, the mice were monitored for up to 120 days post-tumoring or until one of the following conditions for euthanasia was met: (1) their body weight dropped below 20% of their initial mass; (2) their tumor was greater than 2.0 cm across in any dimension; (3) they became lethargic or sick and unable to feed; or (4) they were found dead. The time to reach the endpoint (TTE) for each mouse was calculated from the equation of the line obtained by exponential regression of the tumor growth curve. Subsequently, the percent of tumor growth delay (% TGD) were calculated based on the difference between the mean TTE of treatment group (T) and theme an TTE of the control group (C) (% TGD=[(T−C)/C]×100). […] In a partial regression response, the tumor volume is less than or equal to 50% of its day 1 volume for three consecutive measurements during the course of the study, and greater than or equal to 13.5 mm^3 for one or more of these three measurements. In a complete regression response, the tumor volume is less than 13.5 mm^3 for three consecutive measurements during the course of the study. An animal with a complete regression response at the end of the study was additionally classified as a tumor-free survivor.
The investigation to get the above-mentioned results took place in female BALB/c mice earing TUBO breast carcinoma tumor after administration of a single dose of 15 mg/kg liposome loaded by doxorubicin (DOX) or dextrose 5% on day 11 after tumor inoculation.
Data set [4] relates to TUBO (HER2-overexpressing cells). Put plainly: MTT cytotoxicity study. Format: cell-based, mice. The following applies: then 48 hours, mean ± SD, n = 3. The procedure:
as §1, §2

In data set [5] the test system is SKBR3 (HER2-overexpressing cells). Nature of the data set: MTT cytotoxicity study. The following applies: then 48 hours, mean ± SD, n = 3. Format: cell-based, human. The protocol: as §1, §2
Setting [6] is: Table 3B (719W), liposomes 15 mg/kg, DOX 10 mg/kg.

Read-outs that look alike come from different tables or passages of the source.

Here are results for one compound from US10428111B2, “Cancer targeting by anti-EGFR peptides and applications thereof” (priority 2015, dated 2019).

By IC50 is commonly meant the concentration needed to halve the response being measured. Regarding `COc1cccc2c1C(=O)c1c(O)c3c(c(O)c1C2=O)C[C@@](O)(C(=O)CO)C[C@@H]3O[C@H]1C[C@H](N)[C@H](O)[C@H](C)O1` [DOX, doxorubicin], the “plasma concentration of DOX after intravenous injection” value in data set [1] was “below the detection limit”. For the same compound, the IC50 in data set [2] (Table 2A (420W), 3 hours incubation, read-out: IC50 MDA-MB-231 3 hours) worked out at 600 ± 50 nM; in data set [2] (Table 2A (420W), 6 hours incubation, read-out: IC50 MDA-MB-231 6 hours), 260 ± 10 nM; in data set [2] (Table 2B (719W), 3 h incubation, read-out: IC50 MDA-MB-231 3 h) it was 600 ± 90 nM; in data set [2] (Table 2B (719W), 6 h incubation, read-out: IC50 MDA-MB-231 6 h) it was 260 ± 40 nM; in data set [4] (Table 2A (420W), 3 hours incubation, read-out: IC50 TUBO 3 hours), 150 ± 70 nM; in data set [4] (Table 2A (420W), 6 hours incubation, read-out: IC50 TUBO 6 hours), 90 ± 10 nM. In addition, the IC50 in data set [4] (Table 2B (719W), 3 h incubation, read-out: IC50 TUBO 3 h) came out at 150 ± 10 nM; in data set [4] (Table 2B (719W), 6 h incubation, read-out: IC50 TUBO 6 h), 90 ± 30 nM; in data set [5] (Table 2A (420W), 3 hours incubation, read-out: IC50 SKBR3 3 hours), 620 ± 20 nM; in data set [5] (Table 2A (420W), 6 hours incubation, read-out: IC50 SKBR3 6 hours), 390 ± 50 nM; in data set [5] (Table 2B (719W), 3 h incubation, read-out: IC50 SKBR3 3 h) it was 560 ± 20 nM; in data set [5] (Table 2B (719W), 6 h incubation, read-out: IC50 SKBR3 6 h), 240 ± 10 nM. Also, the “CR (complete regression)” value in data set [3] (Table 3A (420W)) and in data set [3] (setting [6]) was 0 in each case. The “TFS (tumor free survivor)” value in data set [3] (Table 3A (420W)) and in data set [3] (setting [6]) was 0 in each case. Further, the “TTE (time to reach the end point)” value came to 70.4 days in data set [3] (Table 3A (420W), single i.v. dose on day 11, monitored up to 120 days) and 70.4 days in data set [3] (setting [6]). Besides, the “MST (Median survival Time)” value in data set [3] (Table 3A (420W), single i.v. dose on day 11 after tumor inoculation, monitored up to 120 days) turned out to be 69.2 days; in data set [3] (Table 3B (719W), single i.v. dose, liposomes 15 mg/kg, DOX 10 mg/kg, up to 120 days), 69.2 days. Also, the “TGD (Tumor growth delay)” value in data set [3] (Table 3A (420W)) and in data set [3] (setting [6]) was 18% in each case.
